Laboratory results from article PMC6979384, “Characterization of the plant homeodomain (PHD) reader family for their histone tail interactions” (Epigenetics & Chromatin, 2020).
Values belong to the substance of their own block, whether it stands above or below them.

How the values were obtained:
Assay in all cases: Histone peptide microarray
Format in all cases: binding, human
KDM5A (3) = conditions: arrays performed twice, n of 4; for Array Heatmap signal, KDM5A (3): histone peptide array
Outline: (§1)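 GST-tagged PHD readers, 0.5 μM, probed on a microarray of 293 synthetic histone peptides carrying single or combinatorial PTMs (optimized Petell protocol). Signals are averaged over 4 replicates and expressed as relative binding.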

BAZ2B = conditions: arrays performed twice, n of 4; for Array Heatmap signal, BAZ2B: histone peptide array
Outline: as §1

PHF13 = conditions: arrays performed twice, n of 4; for Array Heatmap signal, PHF13: histone peptide array
Outline: as §1

CHD5 (PPCC) = conditions: arrays performed twice, n of 4; for Array Heatmap signal, CHD5 (PPCC): histone peptide array
Outline: as §1

ING3 = conditions: arrays performed twice, n of 4; for Array Heatmap signal, ING3: histone peptide array
Outline: as §1

PHF21A = conditions: arrays performed twice, n of 4; for Array Heatmap signal, PHF21A: histone peptide array
Outline: as §1

DPF2 (PPC2W2) = conditions: arrays performed twice, n of 4; for Array Heatmap signal, DPF2 (PPC2W2): histone peptide array
Outline: as §1

KDM7A = conditions: arrays performed twice, n of 4; for Array Heatmap signal, KDM7A: histone peptide array
Outline: as §1

KDM5A (1) = conditions: arrays performed twice, n of 4; for Array Heatmap signal, KDM5A (1): histone peptide array
Outline: as §1

ING5 = conditions: arrays performed twice, n of 4; for Array Heatmap signal, ING5: histone peptide array
Outline: as §1

SP140L = conditions: arrays performed twice, n of 4; for Array Heatmap signal, SP140L: histone peptide array
Outline: as §1

RAG2 = conditions: arrays performed twice, n of 4; for Array Heatmap signal, RAG2: histone peptide array
Outline: as §1

TAF3 = conditions: arrays performed twice, n of 4; for Array Heatmap signal, TAF3: histone peptide array
Outline: as §1

CHD4 (PPCC) = conditions: arrays performed twice, n of 4; for Array Heatmap signal, CHD4 (PPCC): histone peptide array
Outline: as §1

KDM4C (TTP) = conditions: arrays performed twice, n of 4; for Array Heatmap signal, KDM4C (TTP): histone peptide array
Outline: as §1

MORC3 (CW) = conditions: arrays performed twice, n of 4; for Array Heatmap signal, MORC3 (CW): histone peptide array
Outline: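 GST-PHD reader, 0.5 μM, probed on 293-peptide histone array (single/combinatorial PTMs); optimized array protocol; signal = mean ± SD, n = 4.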

PHF8 = conditions: arrays performed twice, n of 4; for Array Heatmap signal, PHF8: histone peptide array
Outline: as §1

KDM5B (1) = conditions: arrays performed twice, n of 4; for Array Heatmap signal, KDM5B (1): histone peptide array
Outline: as §1

ING1 = conditions: arrays performed twice, n of 4; for Array Heatmap signal, ING1: histone peptide array
Outline: as §1

TRIM66 (PB) = conditions: arrays performed twice, n of 4; for Array Heatmap signal, TRIM66 (PB): histone peptide array
Outline: as §1

PHF23 = conditions: arrays performed twice, n of 4; for Array Heatmap signal, PHF23: histone peptide array
Outline: as §1

ING4 = conditions: arrays performed twice, n of 4; for Array Heatmap signal, ING4: histone peptide array
Outline: as §1

KDM5B (3) = conditions: arrays performed twice, n of 4; for Array Heatmap signal, KDM5B (3): histone peptide array
Outline: as §1

DIDO1 = conditions: arrays performed twice, n of 4; for Array Heatmap signal, DIDO1: histone peptide array
Outline: as §1

ING2 = conditions: arrays performed twice, n of 4; for Array Heatmap signal, ING2: histone peptide array
Outline: as §1

AIRE (PP) = conditions: arrays performed twice, n of 4; for Array Heatmap signal, AIRE (PP): histone peptide array
Outline: as §1

PHRF1 (RP) = conditions: arrays performed twice, n of 4; for Array Heatmap signal, PHRF1 (RP): histone peptide array
Outline: as §1

MLL5 = conditions: arrays performed twice, n of 4; for Array Heatmap signal, MLL5: histone peptide array
Outline: as §1

PHF2 = conditions: arrays performed twice, n of 4; for Array Heatmap signal, PHF2: histone peptide array
Outline: as §1

BPTF (PB) = conditions: arrays performed twice, n of 4; for Array Heatmap signal, BPTF (PB): histone peptide array
Outline: as §1

CHD5 (PCC) = conditions: arrays performed twice, n of 4; for Array Heatmap signal, CHD5 (PCC): histone peptide array
Outline: as §1

[1] = GST-tagged reader, PPCC = Dual PHD + Dual Chromodomain
[2] = GST-tagged reader, PB = PHD + Bromodomain

Substance: H4K8but (1-23): H4 1-23
Array Heatmap signal, KDM5A (3) (KDM5A (3); GST-tagged reader): 0.4217
Array Heatmap signal, BAZ2B (BAZ2B; GST-tagged reader): 0.516
Array Heatmap signal, PHF13 (PHF13; GST-tagged reader): 0.6477
Array Heatmap signal, CHD5 (PPCC) (CHD5 (PPCC); [1]): 0.6043
Array Heatmap signal, ING3 (ING3; GST-tagged reader): 0.4842
Array Heatmap signal, PHF21A (PHF21A; GST-tagged reader): 0.5096
Array Heatmap signal, DPF2 (PPC2W2) (DPF2 (PPC2W2); GST-tagged reader, PPC2W2 = Dual PHD + C2W2-type Zn-finger): 0.6771
Array Heatmap signal, KDM7A (KDM7A; GST-tagged reader): 0.4551
Array Heatmap signal, KDM5A (1) (KDM5A (1); GST-tagged reader): 0.5298
Array Heatmap signal, ING5 (ING5; GST-tagged reader): 0.3969
Array Heatmap signal, SP140L (SP140L; GST-tagged reader): 0.3902
Array Heatmap signal, RAG2 (RAG2; GST-tagged reader): 0.2428
Array Heatmap signal, TAF3 (TAF3; GST-tagged reader): 0.3164
Array Heatmap signal, CHD4 (PPCC) (CHD4 (PPCC); [1]): 0.5879
Array Heatmap signal, KDM4C (TTP) (KDM4C (TTP); GST-tagged reader, TTP = Tandem Tudor domain + PHD): 0.554
Array Heatmap signal, MORC3 (CW) (MORC3 (CW); GST-tagged reader, CW = CW-type Zn-finger): 0.3738
Array Heatmap signal, PHF8 (PHF8; GST-tagged reader): 0.3491
Array Heatmap signal, KDM5B (1) (KDM5B (1); GST-tagged reader): 0.6708
Array Heatmap signal, ING1 (ING1; GST-tagged reader): 0.5208
Array Heatmap signal, TRIM66 (PB) (TRIM66 (PB); [2]): 0.6276
Array Heatmap signal, PHF23 (PHF23; GST-tagged reader): 0.5244
Array Heatmap signal, ING4 (ING4; GST-tagged reader): 0.503
Array Heatmap signal, KDM5B (3) (KDM5B (3); GST-tagged reader): 0.4914
Array Heatmap signal, DIDO1 (DIDO1; GST-tagged reader): 0.6187
Array Heatmap signal, ING2 (ING2; GST-tagged reader): 0.5968
Array Heatmap signal, AIRE (PP) (AIRE (PP); GST-tagged reader): 0.5833
Array Heatmap signal, PHRF1 (RP) (PHRF1 (RP); GST-tagged reader): 0.4442
Array Heatmap signal, MLL5 (MLL5; GST-tagged reader): 0.5606
Array Heatmap signal, PHF2 (PHF2; GST-tagged reader): 0.4448
Array Heatmap signal, BPTF (PB) (BPTF (PB); [2]): 0.3704
Array Heatmap signal, CHD5 (PCC) (CHD5 (PCC); GST-tagged reader, PCC = PHD + Dual Chromodomain): 0.8434

Array Heatmap value (peptide array binding signal) (KDM5A (3); KDM5A (3), GST-tagged): 0.4616
Array Heatmap value (peptide array binding signal) (BAZ2B; BAZ2B, GST-tagged): 0.4726
Array Heatmap value (peptide array binding signal) (PHF13; PHF13, GST-tagged): 0.6242
Array Heatmap value (peptide array binding signal) (CHD5 (PPCC); CHD5 (PPCC), GST-tagged): 0.558
Array Heatmap value (peptide array binding signal) (ING3; ING3, GST-tagged): 0.514
Array Heatmap value (peptide array binding signal) (PHF21A; PHF21A, GST-tagged): 0.4915
Array Heatmap value (peptide array binding signal) (DPF2 (PPC2W2); DPF2 (PPC2W2), GST-tagged): 0.7109
Array Heatmap value (peptide array binding signal) (KDM7A; KDM7A, GST-tagged): 0.3413
Array Heatmap value (peptide array binding signal) (KDM5A (1); KDM5A (1), GST-tagged): 0.445
Array Heatmap value (peptide array binding signal) (ING5; ING5, GST-tagged): 0.3641
Array Heatmap value (peptide array binding signal) (SP140L; SP140L, GST-tagged): 0.3853
Array Heatmap value (peptide array binding signal) (RAG2; RAG2, GST-tagged): 0.2588
Array Heatmap value (peptide array binding signal) (TAF3; TAF3, GST-tagged): 0.2722
Array Heatmap value (peptide array binding signal) (CHD4 (PPCC); CHD4 (PPCC), GST-tagged): 0.6125
Array Heatmap value (peptide array binding signal) (KDM4C (TTP); KDM4C (TTP), GST-tagged): 0.4883
Array Heatmap value (peptide array binding signal) (MORC3 (CW); MORC3 (CW), GST-tagged): 0.3765
Array Heatmap value (peptide array binding signal) (PHF8; PHF8, GST-tagged): 0.3718
Array Heatmap value (peptide array binding signal) (KDM5B (1); KDM5B (1), GST-tagged): 0.6396
Array Heatmap value (peptide array binding signal) (ING1; ING1, GST-tagged): 0.5733
Array Heatmap value (peptide array binding signal) (TRIM66 (PB); TRIM66 (PB), GST-tagged): 0.6142
Array Heatmap value (peptide array binding signal) (PHF23; PHF23, GST-tagged): 0.5427
Array Heatmap value (peptide array binding signal) (ING4; ING4, GST-tagged): 0.4749
Array Heatmap value (peptide array binding signal) (KDM5B (3); KDM5B (3), GST-tagged): 0.4591
Array Heatmap value (peptide array binding signal) (DIDO1; DIDO1, GST-tagged): 0.7218
Array Heatmap value (peptide array binding signal) (ING2; ING2, GST-tagged): 0.5951
Array Heatmap value (peptide array binding signal) (AIRE (PP); AIRE (PP), GST-tagged): 0.4246
Array Heatmap value (peptide array binding signal) (PHRF1 (RP); PHRF1 (RP), GST-tagged): 0.4962
Array Heatmap value (peptide array binding signal) (MLL5; MLL5, GST-tagged): 0.5584
Array Heatmap value (peptide array binding signal) (PHF2; PHF2, GST-tagged): 0.5963
Array Heatmap value (peptide array binding signal) (BPTF (PB); BPTF (PB), GST-tagged): 0.3716
Array Heatmap value (peptide array binding signal) (CHD5 (PCC); CHD5 (PCC), GST-tagged): 0.8139
Substance: H4K8me1: H4 1-23 [Peptide H4K8me1]

Substance: H4K12ac + K16ac + K20me1: H4 11-27
Array Heatmap signal, KDM5A (3) (KDM5A (3); GST-tagged KDM5A (3)): 0.4519
Array Heatmap signal, BAZ2B (BAZ2B; GST-tagged BAZ2B): 0.4211
Array Heatmap signal, PHF13 (PHF13; GST-tagged PHF13): 0.5671
Array Heatmap signal, CHD5 (PPCC) (CHD5 (PPCC); GST-tagged CHD5 (PPCC = Dual PHD + Dual Chromodomain)): 0.5143
Array Heatmap signal, ING3 (ING3; GST-tagged ING3): 0.451
Array Heatmap signal, PHF21A (PHF21A; GST-tagged PHF21A): 0.4255
Array Heatmap signal, DPF2 (PPC2W2) (DPF2 (PPC2W2); GST-tagged DPF2 (PPC2W2 = Dual PHD + C2W2-type Zn-finger)): 0.6625
Array Heatmap signal, KDM7A (KDM7A; GST-tagged KDM7A): 0.3032
Array Heatmap signal, KDM5A (1) (KDM5A (1); GST-tagged KDM5A (1)): 0.4176
Array Heatmap signal, ING5 (ING5; GST-tagged ING5): 0.3345
Array Heatmap signal, SP140L (SP140L; GST-tagged SP140L): 0.3459
Array Heatmap signal, RAG2 (RAG2; GST-tagged RAG2): 0.2293
Array Heatmap signal, TAF3 (TAF3; GST-tagged TAF3): 0.2511
Array Heatmap signal, CHD4 (PPCC) (CHD4 (PPCC); GST-tagged CHD4 (PPCC = Dual PHD + Dual Chromodomain)): 0.5474
Array Heatmap signal, KDM4C (TTP) (KDM4C (TTP); GST-tagged KDM4C (TTP = Tandem Tudor domain + PHD)): 0.4269
Array Heatmap signal, MORC3 (CW) (MORC3 (CW); GST-tagged MORC3 (CW = CW-type Zn-finger)): 0.3309
Array Heatmap signal, PHF8 (PHF8; GST-tagged PHF8): 0.3408
Array Heatmap signal, KDM5B (1) (KDM5B (1); GST-tagged KDM5B (1)): 0.5461
Array Heatmap signal, ING1 (ING1; GST-tagged ING1): 0.5716
Array Heatmap signal, TRIM66 (PB) (TRIM66 (PB); GST-tagged TRIM66 (PB = PHD + Bromodomain)): 0.5407
Array Heatmap signal, PHF23 (PHF23; GST-tagged PHF23): 0.5291
Array Heatmap signal, ING4 (ING4; GST-tagged ING4): 0.4334
Array Heatmap signal, KDM5B (3) (KDM5B (3); GST-tagged KDM5B (3)): 0.4151
Array Heatmap signal, DIDO1 (DIDO1; GST-tagged DIDO1): 0.7187
Array Heatmap signal, ING2 (ING2; GST-tagged ING2): 0.5978
Array Heatmap signal, AIRE (PP) (AIRE (PP); GST-tagged AIRE (PP)): 0.384
Array Heatmap signal, PHRF1 (RP) (PHRF1 (RP); GST-tagged PHRF1 (RP)): 0.4296
Array Heatmap signal, MLL5 (MLL5; GST-tagged MLL5): 0.5572
Array Heatmap signal, PHF2 (PHF2; GST-tagged PHF2): 0.5516
Array Heatmap signal, BPTF (PB) (BPTF (PB); GST-tagged BPTF (PB = PHD + Bromodomain)): 0.3283
Array Heatmap signal, CHD5 (PCC) (CHD5 (PCC); GST-tagged CHD5 (PCC = PHD + Dual Chromodomain)): 0.6765
